Data: publication PMC9763612, “Discovery of pyrrole derivatives as acetylcholinesterase-sparing butyrylcholinesterase inhibitor” (Frontiers in Pharmacology, 2022)
Read-outs that look alike come from different tables or passages of the source.

What was measured:
[1] = molecular target: T1, eqBChE (BChE from equine serum) (Equus caballus, UniProt P81908); assay: biochemical
T1 construct: BChE (E.C. 3.1.1.8, from equine serum); purchased Sigma-Aldrich; host or cells: equine serum
Procedure: (§1) AChE (E.C. 3.1.1.7, Type V-S, lyophilized powder, from electric eel, 1000 unit), BChE (E.C. 3.1.1.8, from equine serum), ATCI, BTCI, and DTNB were purchased from Sigma-Aldrich. To the experimental group in a 96-well plate, 10 μl AChE or BChE (final concentration is 0.04 U/ml), 25 μl tested compounds, and 65 μl PBS buffer was sequentially added. For the control group, all components were in accordance with those in the experimental group, except that 25 μl tested compounds were replaced by equal volume of PBS. For the blank group, only 100 μl PBS was added. […] The calculation formula is: inhibition rate% = (ODcontrol-ODtest)/(ODcontrol-ODblank)*100.
3. Screen of the most appropriate incubation time for compounds and
In order to find the most appropriate incubation time for compounds and enzyme, to verify whether the incubation time of 25 min is appropriate, and to further improve […]
time, made the inhibition rate-incubation time curves (Figure S1), and calculated the IC50 values of these compounds under different incubation time (Table S1).

[2] = molecular target: T2, eeAChE (AChE from electric eel) (Electrophorus electricus, UniProt O42275); assay: biochemical; conditions: incubation time 25 min; mean ± SD, at least three independent experiments
T2 construct: AChE (E.C. 3.1.1.7, Type V-S, lyophilized powder, from electric eel, 1000 unit); purchased Sigma-Aldrich Type V-S; host or cells: electric eel
Procedure: as §1

eqBChE = molecular target: T3, eqBChE (Equus caballus, UniProt P81908); assay: Inhibition kinetics of butyrylcholinesterase (reversibility, Lineweaver-Burk, Ki replot); assay type: biochemical
T3 construct: BChE (E.C. 3.1.1.8, from equine serum); purchased Sigma-Aldrich; host or cells: equine serum
From the text: According to the type of interaction between inhibitor and enzyme, there are three reaction types including the reversible, irreversible, and pseudo-irreversible reactions in the cholinesterase catalyzed reaction, and each type has its representative characteristics. By studying the reaction rate changes in enzymatic reactions in the presence of inhibitors, the mechanism of action of inhibitors on enzymes, viz the inhibition type could be determined, which is of great significance for further structural modification and the discovery of compounds with better enzyme inhibitory activity. To reveal the interaction between synthesized inhibitors and eq BChE, we initially chose compound 3p as an example and studied the reversibility of enzymatic reaction in the presence of inhibitor. When the final concentration of substrate BTCI was fixed at 0.2 mM, we deduced from Figure 2A that both compound 3p increased the enzymatic reaction rate to varying degrees with the increase of enzyme concentration. When both the concentrations of eq BChE and BTCI remained constant, the rate of the enzymatic reaction decreased with the increase of inhibitor concentration.
In the process of reversible inhibition reaction, inhibitors can be divided into competitive, non-competitive, mixed competitive, and anti-competitive inhibitors according to the effect of inhibitors and substrate on enzyme ([Liu et al., 2022]). […] For compound 3p, the Km values increased while the Vmax values decreased compared with those in the absence of inhibitors, which was not in accordance with the characteristics of competitive, non-competitive, and anti-competitive inhibitors. Therefore, non-competitive in combination with competitive inhibition and/or non-competitive in combination with anti-competitive inhibition maybe existed in the reaction systems of compound 3p with enzyme (Figure 2B). […] However, the binding affinity of compounds 3p with the free enzyme or the substrate-enzyme complex was different. […]

[3] = incubation time 25 min, mean ± SD, at least three independent experiments, read-out: IC50 eqBChE
[4] = incubation time 5 min, read-out: IC50 eqBChE under different incubation time
[5] = incubation time 10 min, read-out: IC50 eqBChE under different incubation time
[6] = incubation time 15 min, read-out: IC50 eqBChE under different incubation time
[7] = incubation time 45 min, read-out: IC50 eqBChE under different incubation time
[8] = incubation time 65 min, read-out: IC50 eqBChE under different incubation time
[9] = incubation time 85 min, read-out: IC50 eqBChE under different incubation time

T3 sequence (P81908 whole entry): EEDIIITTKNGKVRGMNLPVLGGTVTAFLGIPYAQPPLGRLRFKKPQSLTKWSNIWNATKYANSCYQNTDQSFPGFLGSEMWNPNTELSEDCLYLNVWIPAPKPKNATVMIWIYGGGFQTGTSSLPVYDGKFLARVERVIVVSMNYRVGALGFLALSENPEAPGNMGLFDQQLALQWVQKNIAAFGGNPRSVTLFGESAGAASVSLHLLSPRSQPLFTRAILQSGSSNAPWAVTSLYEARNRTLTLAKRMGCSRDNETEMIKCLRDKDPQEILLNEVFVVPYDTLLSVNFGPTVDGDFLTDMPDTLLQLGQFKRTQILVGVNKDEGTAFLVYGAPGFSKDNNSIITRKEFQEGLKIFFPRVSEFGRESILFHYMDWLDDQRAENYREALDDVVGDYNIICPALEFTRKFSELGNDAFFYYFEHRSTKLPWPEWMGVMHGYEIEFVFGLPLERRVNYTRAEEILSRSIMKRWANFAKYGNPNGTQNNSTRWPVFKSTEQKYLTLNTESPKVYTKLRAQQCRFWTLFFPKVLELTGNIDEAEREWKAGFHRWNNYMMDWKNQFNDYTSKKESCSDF
T1 sequence (P81908 whole entry): as above
T2 sequence (O42275 24-633): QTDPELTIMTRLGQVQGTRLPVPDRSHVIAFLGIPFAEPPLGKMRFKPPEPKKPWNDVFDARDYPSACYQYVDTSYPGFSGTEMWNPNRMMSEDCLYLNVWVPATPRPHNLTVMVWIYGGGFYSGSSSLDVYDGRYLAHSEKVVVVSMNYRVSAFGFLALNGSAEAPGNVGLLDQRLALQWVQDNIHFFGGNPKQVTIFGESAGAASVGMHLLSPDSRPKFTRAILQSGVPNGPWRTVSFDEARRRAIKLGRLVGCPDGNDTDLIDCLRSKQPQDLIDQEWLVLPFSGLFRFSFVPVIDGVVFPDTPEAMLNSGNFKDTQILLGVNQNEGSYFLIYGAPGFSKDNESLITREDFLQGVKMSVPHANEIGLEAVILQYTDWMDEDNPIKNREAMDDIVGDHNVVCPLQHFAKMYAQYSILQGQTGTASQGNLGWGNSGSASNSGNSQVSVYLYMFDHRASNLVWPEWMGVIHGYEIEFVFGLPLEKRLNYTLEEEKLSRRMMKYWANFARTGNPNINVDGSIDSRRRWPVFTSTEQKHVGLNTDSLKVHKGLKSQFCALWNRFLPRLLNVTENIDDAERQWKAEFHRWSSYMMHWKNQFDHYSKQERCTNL

Q: `Cc1ccccc1-n1cccc1` [Compound 3a] was tested. Which IC50 [1, 3] did it give?
A: > 50 µM

Q: And the IC50 [2]?
A: > 50 µM

Q: How did the IC50 [1, 3] turn out when `Clc1ccccc1-n1cccc1` [Compound 3b] was run?
A: > 50 µM

Q: And the IC50 [2]?
A: > 50 µM

Q: For `Cc1cccc(-n2cccc2)c1` [Compound 3c], which IC50 [1, 3] is on record?
A: > 50 µM

Q: What about the IC50 [2] of the same compound?
A: > 50 µM

Q: `Brc1cccc(-n2cccc2)c1` [Compound 3d] was tested. Which IC50 [1, 3] did it give?
A: > 50 µM

Q: And the IC50 [2]?
A: > 50 µM

Q: How did the IC50 [1, 3] turn out when `CC(C)c1ccc(-n2cccc2)cc1` [Compound 3e] was run?
A: > 50 µM

Q: What about the IC50 [2] of the same compound?
A: > 50 µM

Q: With `CSc1ccc(-n2cccc2)cc1` [Compound 3f] as the compound, how does the IC50 [1, 3] read?
A: > 50 µM

Q: What about the IC50 [2] of the same compound?
A: > 50 µM

Q: What does the source list for `Brc1ccc(-n2cccc2)cc1` [Compound 3g]?
A: IC50 [1, 3]: > 50 µM; IC50 [2]: > 50 µM

Q: How did the IC50 [1, 3] turn out when `COC(=O)c1ccc(-n2cccc2)cc1` [Compound 3h] was run?
A: > 50 µM

Q: What about the IC50 [2] of the same compound?
A: > 50 µM

Q: `Cc1cccc(C)c1-n1cccc1` [Compound 3i] was tested. Which IC50 [1, 3] did it give?
A: > 50 µM

Q: What about the IC50 [2] of the same compound?
A: > 50 µM

Q: With `c1ccc(-n2cccc2)nc1` [Compound 3j] as the compound, how does the IC50 [1, 3] read?
A: > 50 µM

Q: And the IC50 [2]?
A: > 50 µM

Q: Which IC50 [1, 3] does the source give for `Cc1cc(-n2cccc2)no1` [Compound 3k] here?
A: > 50 µM

Q: What about the IC50 [2] of the same compound?
A: > 50 µM

Q: With `c1ccc2nc(-n3cccc3)cnc2c1` [Compound 3l] as the compound, how does the IC50 [1, 3] read?
A: > 50 µM

Q: What about the IC50 [2] of the same compound?
A: > 50 µM

Q: How did the IC50 [1, 3] turn out when `c1ccc(Cc2ccn(-c3ccccc3)c2)cc1` [Compound 3m] was run?
A: > 50 µM

Q: What about the IC50 [2] of the same compound?
A: > 50 µM

Q: `c1ccc(-c2ccn(-c3ccccc3)c2)cc1` [Compound 3n] was tested. Which IC50 [1, 3] did it give?
A: > 50 µM

Q: What about the IC50 [2] of the same compound?
A: > 50 µM

Q: For `COc1ccccc1-c1ccn(-c2ccccc2)c1` [Compound 3o], which IC50 [1, 4] is on record?
A: 4.8 ± 0.38 µM

Q: What about the IC50 [1, 5] of the same compound?
A: 5.06 ± 1.2 µM

Q: What about the IC50 [1, 6] of the same compound?
A: 6.87 ± 0.6 µM

Q: What about the IC50 [1, 3] of the same compound?
A: 5.37 ± 0.36 µM

Q: And the IC50 [1, 7]?
A: 6.67 ± 0.61 µM

Q: What about the IC50 [1, 8] of the same compound?
A: 6.83 ± 0.24 µM

Q: And the IC50 [1, 9]?
A: 7.63 ± 0.77 µM

Q: What about the IC50 [2] of the same compound?
A: > 50 µM

Q: With `Clc1ccccc1-c1ccn(-c2ccccc2)c1` [Compound 3p] as the compound, how does the IC50 [1, 4] read?
A: 0.6 ± 0.1 µM

Q: What about the IC50 [1, 5] of the same compound?
A: 0.48 ± 0.24 µM

Q: And the IC50 [1, 6]?
A: 1.95 ± 0.13 µM

Q: And the IC50 [1, 3]?
A: 1.71 ± 0.087 µM

Q: What about the IC50 [1, 7] of the same compound?
A: 2.4 ± 0.11 µM

Q: What about the IC50 [1, 8] of the same compound?
A: 3.27 ± 0.49 µM

Q: And the IC50 [1, 9]?
A: 3.2 ± 0.092 µM

Q: And the IC50 [2]?
A: > 50 µM

Q: And the Inhibition mode (eqBChE; Lineweaver-Burk plots)?
A: mixed competitive inhibition

Q: What about the Reversibility of inhibition (eqBChE; rate vs. enzyme concentration, BTCI 0.2 mM) of the same compound?
A: reversible

Q: What about the Ki (eqBChE; replot of Lineweaver-Burk slopes vs. inhibitor concentration) of the same compound?
A: 0.281 µM

Q: How did the IC50 [1, 3] turn out when `COc1cccc(-c2ccn(-c3ccccc3)c2)c1` [Compound 3q] was run?
A: > 50 µM

Q: What about the IC50 [2] of the same compound?
A: > 50 µM

Q: How did the IC50 [1, 3] turn out when `FC(F)(F)c1cccc(-c2ccn(-c3ccccc3)c2)c1` [Compound 3r] was run?
A: > 50 µM

Q: What about the IC50 [2] of the same compound?
A: > 50 µM

Q: For `c1ccc(-c2ccc(-c3ccn(-c4ccccc4)c3)cc2)cc1` [Compound 3s], which IC50 [1, 4] is on record?
A: 5.87 ± 0.23 µM

Q: What about the IC50 [1, 5] of the same compound?
A: 5.95 ± 0.3 µM

Q: What about the IC50 [1, 6] of the same compound?
A: 6.05 ± 0.65 µM

Q: And the IC50 [1, 3]?
A: 3.76 ± 0.25 µM

Q: And the IC50 [1, 7]?
A: 4.41 ± 0.15 µM

Q: What about the IC50 [1, 8] of the same compound?
A: 4.21 ± 0.075 µM

Q: What about the IC50 [1, 9] of the same compound?
A: 4.38 ± 0.18 µM

Q: And the IC50 [2]?
A: > 50 µM
